Like-named read-outs stand apart in the source and are kept apart here. Where a SMILES comes first, the peptide text is derived from it.
Columns and labels:
[1] = beagle, GLP, 5 mg/kg/dose four times per day (20 mg/kg/day) for 14 days; cited from earlier work
[2] = in vivo, iv
[3] = Repeated dose pharmacokinetics of intravenous CN-105; type: in vivo, human; conditions: for Ratio 2/1: AUCTAU2/AUCTAU1, repeated 1 mg/kg i.v. infusions over 30 min; for Ratio 13/1: AUCTAU13/AUCTAU1, repeated 1 mg/kg i.v. infusions over 30 min; for AUCTAU1 / AUCTAU2 / AUCTAU13: repeated 1 mg/kg i.v. infusions over 30 min; for AUCTAU2: dose 2; for AUCTAU13: dose 13
[4] = murine pharmacokinetics; cited from earlier work
[5] = Single ascending dose pharmacokinetics of intravenous CN-105 in healthy adults
[6] = rodent, GLP, 5 mg/kg/dose four times per day (20 mg/kg/day) for 14 days; cited from earlier work
[7] = Safety and tolerability in healthy adult subjects; conditions: healthy adults, single 0.01-1.0 mg/kg and repeated 1 mg/kg i.v.
[8] = healthy adults, 1 mg/kg i.v. every 6 h for 72 h

SMILES: CC(=O)N[C@H](C(=O)N[C@@H](CO)C(=O)N[C@@H](CCCNC(=N)N)C(=O)N[C@@H](CCCNC(=N)N)C(=O)N[C@@H](CCCNC(=N)N)C(N)=O)C(C)C [CN-105] (Ac-VSRRR-NH2; N-terminus and C-terminus assumed)
- tolerability of repeated intravenous administration [1]: well-tolerated
- T1/2 ([2]; 0.01 mg/kg): 2.3 ± 0.5
- T1/2 ([2]; 0.03 mg/kg): 2.4 ± 0.5
- T1/2 ([2]; 0.1 mg/kg): 3.3 ± 0.6
- T1/2 ([2]; 0.3 mg/kg): 3.6 ± .4
- T1/2 ([2]; 1 mg/kg): 3.5 ± 0.3
- accumulation on repeated dosing ([3]; 1 mg/kg i.v. every 6 h for 72 h, judged by AUCTAU ratios between time points): no significant accumulation
- Ratio 2/1 ([3]; geometric mean): 1.1
- Ratio 2/1 ([3]; mean of subjects): 1.1
- Ratio 2/1 ([3]; median): 1.1
- Ratio 13/1 ([3]; geometric mean): 1.2
- Ratio 13/1 ([3]; mean of subjects): 1.2
- Ratio 13/1 ([3]; median): 1.3
- time at which trough concentrations reached a stable plateau [3, 8]: ≤ 20 h
- time to steady state [3, 8]: ≤ 24 h
- half-life ([3]; human, plasma, iv, 1 mg/kg): 3.6 h
- AUC(0-t) ([3]; human, plasma, iv, 1 mg/kg, AUCTAU1, repeated 1 mg/kg i.v. infusions over 30 min, dose 1, geometric mean): 9540 ng·h/mL
- AUCTAU1 ([3]; dose 1, maximum among subjects): 11431.3
- AUCTAU1 ([3]; dose 1, median): 9911.7
- AUCTAU1 ([3]; dose 1, minimum among subjects): 7425.1
- AUCTAU2 ([3]; geometric mean): 10506.5
- AUCTAU2 ([3]; maximum among subjects): 12581.6
- AUCTAU2 ([3]; median): 10448.8
- AUCTAU2 ([3]; minimum among subjects): 8990.5
- AUCTAU13 ([3]; geometric mean): 11328.6
- AUCTAU13 ([3]; maximum among subjects): 14203.2
- AUCTAU13 ([3]; median): 11600.4
- AUCTAU13 ([3]; minimum among subjects): 9382.1
- half-life predicted by animal modeling [4]: 0.5 h
- observed half-life at higher doses ([5]; healthy adults, i.v., higher doses): 3.6 h
- half-life ([5]; human, plasma, iv): 3.5 h
- AUC(0-inf) ([5]; human, plasma, iv, 0.01 mg/kg): 95.9 ± 20.2 ng·h/mL
- Cmax ([5]; human, plasma, iv, 0.01 mg/kg): 35.7 ± 10.9 ng/mL
- Vd ([5]; human, plasma, iv, 0.01 mg/kg): 29.8 ± 3.2 L
- clearance ([5]; human, plasma, iv, 0.01 mg/kg): 150 mL/min
- AUC(0-inf) ([5]; human, plasma, iv, 0.03 mg/kg): 281 ± 39.6 ng·h/mL
- Cmax ([5]; human, plasma, iv, 0.03 mg/kg): 108 ± 25.5 ng/mL
- Vd ([5]; human, plasma, iv, 0.03 mg/kg): 30.4 ± 8 L
- clearance ([5]; human, plasma, iv, 0.03 mg/kg): 150 mL/min
- AUC(0-inf) ([5]; human, plasma, iv, 0.1 mg/kg): 1130 ± 194 ng·h/mL
- Cmax ([5]; human, plasma, iv, 0.1 mg/kg): 408 ± 129 ng/mL
- Vd ([5]; human, plasma, iv, 0.1 mg/kg): 38.9 ± 12 L
- clearance ([5]; human, plasma, iv, 0.1 mg/kg): 137 mL/min
- AUC(0-inf) ([5]; human, plasma, iv, 0.3 mg/kg): 2670 ± 272 ng·h/mL
- Cmax ([5]; human, plasma, iv, 0.3 mg/kg): 966 ± 209 ng/mL
- Vd ([5]; human, plasma, iv, 0.3 mg/kg): 45.6 ± 11.2 L
- clearance ([5]; human, plasma, iv, 0.3 mg/kg): 147 mL/min
- AUC(0-inf) ([5]; human, plasma, iv, 1 mg/kg): 9550 ± 1280 ng·h/mL
- Cmax ([5]; human, plasma, iv, 1 mg/kg): 3940 ± 507 ng/mL
- Vd ([5]; human, plasma, iv, 1 mg/kg): 38.4 ± 8.1 L
- clearance ([5]; human, plasma, iv, 1 mg/kg): 128 mL/min
- tolerability of repeated intravenous administration [6]: well-tolerated
- changes in serial ECG, vital signs or clinical laboratory tests [7]: No concerning changes were observed

From paper PMC5524215 (Journal of clinical pharmacology, 2016)
